Reference: ChEMBL document CHEMBL1158341, “A macrolactone from benzo[a]phenazine with potent activity against Mycobacterium tuberculosis” (2009)
≈ marks a conversion by molar mass, not a printed value. Calls of active or inactive are those of the source. The rule behind the calls is not given here.

How the values were obtained:
[1] = tested on: Mycobacterium tuberculosis; test: Antimycobacterial activity against Mycobacterium tuberculosis H37Rv ATCC 27294 at 100 ug/mL after 24 hrs by microplate alamar blue assay; type: functional
[2] = tested on: Mycobacterium tuberculosis; test: Antimycobacterial activity against Mycobacterium tuberculosis H37Rv ATCC 27294 after 24 hrs by microplate alamar blue assay; type: functional

| SMILES | inhibition at 100 µg/mL [1] [%] | MIC [2] |
| --- | --- | --- |
| CC(C)(O)CCCC1(O)C(=O)c2ccccc2-c2nc3ccccc3nc21 (stereo unspecified) | 90 | inactive |
| CC1(C)OC(=O)c2ccccc2-c2c(nc3ccccc3[n+]2[O-])C(=O)CC1Br (stereo unspecified) | 90 | 25 µg/mL (≈ 56.7 µM) |
| CC1(C)CCC(=O)c2nc3ccccc3nc2-c2ccccc2C(=O)O1 | 90 | 0.62 µg/mL (≈ 1.79 µM) |
| CC1(C)CCC(=O)c2nccnc2-c2ccccc2C(=O)O1 | 90 | 50 µg/mL (≈ 169 µM) |
| CC1(C)CC(=O)c2nc3ccccc3nc2-c2ccccc2C(=O)O1 | 90 | 100 µg/mL (≈ 301 µM) |
| CO[C@H]1/C=C/O[C@@]2(C)Oc3c(C)c(O)c4c(O)c(c(/C=N/N5CCN(C)CC5)c(O)c4c3C2=O)NC(=O)/C(C)=C\C=C\[C@H](C)[C@H](O)[C@@H](C)[C@@H](O)[C@@H](C)[C@H](OC(C)=O)[C@@H]1C [RIFAMPIN] |  | 1 µg/mL (≈ 1.22 µM) |
